Test results published in patent publication US20080145858A1, “DETECTION AND IDENTIFICATION OF TOXICANTS BY MEASUREMENT OF GENE […]” (priority 2003, published 2008).
Marks after values point to notes of the source that are not given here.

Test system: Xenopus laevis cleavage stage embryos (stage 8)
Test: Xenopus cDNA microarray, differential gene expression after PMA treatment during cleavage stage (Group I)
Assay type: in vivo
Details: for Normalization by Landmarks (1.6) / Normalization by all Data Points (1.3) / Ratio of Medians (Cy5/Cy3) First Spot / Ratio of Medians (Cy5/Cy3) Mean / Ratio of Medians (Cy5/Cy3) Second Spot / Normalized by Landmarks (1.59) / Normalized by all Data Points (1.28) / (CY3/CY5) by Landmarks (1.6) / (CY3/CY5) by all Data Points (1.3): PMA 100 ng/ml; for % increase of mRNA expression by Microarray analysis (NF by all data point): Stage 8
From the text: Specifically, the method and screen of the present invention function as follows. EST clones produced from Xenopus laevis unfertilized eggs were used in the present study with ˜1,200 EST clones from a 18,500 EST clone set selected for production of a Xenopus cDNA microarray. The Xenopus microarray was used to measure the effect of chemical treatment on Xenopus embryo gene regulation. The chemical treatment was a phorbol ester, PMA. Xenopus eggs were obtained from females induced for ovulation and fertilized in vitro. Control Xenopus laevis embryos were allowed to develop to stage 8 blastula or stage 15 neurula. Treated embryos were exposed to PMA during cleavage stage or during neurulation with end points of blastula (stage 8) or neurula (stage 15). Specifically, PMA 100 ng/ml was added to the incubation media during cleavage stages for evaluation in stage 8 embryo or PMA was added during neural induction for evaluation in stage 15 embryos. RNA extracted from the embryos was used to generate fluorescent cDNA probes for Xenopus microarray analyses to measure differential gene expression with and without the phorbol ester treatment. Analysis was performed using paired RNA samples to compare PMA-treated and untreated embryos: Group I measured the effects of PMA-treatment during the cleavage stage in stage 8 embryos and Group II measured the effects of PMA-treatment during neurulation in stage 15 embryos. Group III measured the change in gene expression between stage 8 and stage 15 embryos.
cDNA fragments were obtained by PCR replication of Xenopus laevis unfertilized egg cDNA inserts, purified, quantitated and loaded onto glass chips by robotics. In addition to the selected ˜1,200 genes, 64 lambda Q gene, an internal control cDNA (Genomic Solutions, Inc., Ann Arbor, Mich.) was loaded on the chip. The insert DNA from ˜1,200 clones were PCR amplified using forward and reverse primers (GF.200 primers, Research Genetics, Huntsville, Ala.). A second PCR was carried out using 1 μl of the primary PCR (20 μl) for template. Excess dNTPs, polymerase and other PCR artifacts were removed from the secondary PCR reactions using Millipore Multiscreen plates (Millipore Corporation, Bedford, Mass.) using the standard protocol. The purity of the PCR products was assessed by electrophoresis and documented using an Alphalmager 1000 Digital Imaging System (Alpha Innotech Corporation, San Leandro, Calif.). The DNA obtained by PCR was quantitated using PicoGreen (Molecular Probes, Eugene, Oreg.). The DNA was denatured and arrayed onto amino-silane coated microscope slides (CMT-GAPS coated slides, Corning, Corning, N.Y.) using a Flexys robotic workstation (Genomic Solutions Inc.). The ˜1,200 PCR products were arrayed in duplicate on each slide and cross-linked. Each gene chip contained duplicate cDNA samples.
Total RNA was prepared from embryos treated in three separate dishes per treatment group that were pooled. Total RNA was isolated from the frog embryos (1,200 embryos for each probe production) using TRIzol extraction (Gibco BRL, Grand Island, N.Y.) and Qiagen RNeasy kits (Qiagen, Valencia, Calif.). The ethanol precipitated RNA was resuspended in RNase-free water, quantitated with RiboGreen (Molecular Probes, Eugene, Oreg.). Total RNA was further purified using oligoTex mRNA maxi kit (Qiagen Co.) with the bound mRNA eluted with minimum volume of elution buffer and precipitated with ethanol. The recovery rate of mRNA by the ethanol precipitation method was ˜70%. Cy3- or Cy5-tagged probes were produced from an mRNA mixture (20 μl) of Xenopus mRNA (5 μg) and lambda Q gene mRNA (3.5 ng) reverse-transcribed with oligo(dT)18-22 primer and dNTPs and the reverse-transcribed cDNA was cross-linked with Cy3 or Cy5 as described in Clontech Atlas™ Glass Fluorescent Labeling kit manual (www.clontech.com). After hydrolysis of the RNA and purification of the probe (Centricon 50, Millipore, Bedford, Mass.), the cDNA in TE buffer was quantitated by absorbance at 260 nm. […]

[1] = cleavage and neurulation stage embryos
[2] = ras-related protein gene, stage 8

CCCCCCCCCCCCCC(=O)O[C@@H]1[C@@H](C)[C@@]2(O)[C@@H](C=C(CO)C[C@]3(O)C(=O)C(C)=C[C@@H]23)[C@@H]2C(C)(C)[C@]12OC(C)=O [PMA, phorbol 12-myristate 12-acetate]
Normalization by Landmarks (1.6) (PBX0143D10 mRNA, stage 8): 0.64 | Normalization by all Data Points (1.3) (PBX0143D10 mRNA, stage 8): 0.40 | Ratio of Medians (Cy5/Cy3) First Spot (PBX0143D10 mRNA, stage 8): 0.22 | Ratio of Medians (Cy5/Cy3) Mean (PBX0143D10 mRNA, stage 8): 0.31 ± 0.11 | Ratio of Medians (Cy5/Cy3) Second Spot (PBX0143D10 mRNA, stage 8): 0.40 | Normalized by Landmarks (1.59) (PBX0143E06 mRNA, stage 8): 3.85 | Normalized by all Data Points (1.28) (PBX0143E06 mRNA, stage 8): 3.10 | Ratio of Medians (Cy5/Cy3) First Spot (PBX0143E06 mRNA, stage 8): 2.92 | Ratio of Medians (Cy5/Cy3) Mean (PBX0143E06 mRNA, stage 8): 2.42 ± 0.50 | Ratio of Medians (Cy5/Cy3) Second Spot (PBX0143E06 mRNA, stage 8): 1.91 | (CY3/CY5) by Landmarks (1.6) (PBX0144A09 mRNA, stage 8): 6.45 | (CY3/CY5) by all Data Points (1.3) (PBX0144A09 mRNA, stage 8): 10.33 | Normalization by Landmarks (1.6) (PBX0144A09 mRNA, stage 8): 0.15 | Normalization by all Data Points (1.3) (PBX0144A09 mRNA, stage 8): 0.10 | Ratio of Medians (Cy5/Cy3) First Spot (PBX0144A09 mRNA, stage 8): 0.06 | Ratio of Medians (Cy5/Cy3) Mean (PBX0144A09 mRNA, stage 8): 0.07 ± 0.02 ^a | Ratio of Medians (Cy5/Cy3) Second Spot (PBX0144A09 mRNA, stage 8): 0.09 | Normalized by Landmarks (1.59) (PBX0144C12 mRNA, stage 8): 5.55 | Normalized by all Data Points (1.28) (PBX0144C12 mRNA, stage 8): 4.47 | Ratio of Medians (Cy5/Cy3) First Spot (PBX0144C12 mRNA, stage 8): 4.75 | Ratio of Medians (Cy5/Cy3) Mean (PBX0144C12 mRNA, stage 8): 3.49 ± 1.26 | Ratio of Medians (Cy5/Cy3) Second Spot (PBX0144C12 mRNA, stage 8): 2.23 | Normalized by Landmarks (1.59) (PBX0144E04 mRNA, stage 8): 5.45 | Normalized by all Data Points (1.28) (PBX0144E04 mRNA, stage 8): 4.38 | Ratio of Medians (Cy5/Cy3) First Spot (PBX0144E04 mRNA, stage 8): 3.67 | Ratio of Medians (Cy5/Cy3) Mean (PBX0144E04 mRNA, stage 8): 3.42 ± 0.25 | Ratio of Medians (Cy5/Cy3) Second Spot (PBX0144E04 mRNA, stage 8): 3.17 | Normalized by Landmarks (1.59) (PBX0145A06 mRNA, stage 8): 4.55 | Normalized by all Data Points (1.28) (PBX0145A06 mRNA, stage 8): 3.66 | Ratio of Medians (Cy5/Cy3) First Spot (PBX0145A06 mRNA, stage 8): 2.27 | Ratio of Medians (Cy5/Cy3) Mean (PBX0145A06 mRNA, stage 8): 2.86 ± 0.59 | Ratio of Medians (Cy5/Cy3) Second Spot (PBX0145A06 mRNA, stage 8): 3.44 | (CY3/CY5) by Landmarks (1.6) (PBX0145A10 mRNA, stage 8): 1.93 | (CY3/CY5) by all Data Points (1.3) (PBX0145A10 mRNA, stage 8): 3.10 | Normalization by Landmarks (1.6) (PBX0145A10 mRNA, stage 8): 0.52 | Normalization by all Data Points (1.3) (PBX0145A10 mRNA, stage 8): 0.32 | Ratio of Medians (Cy5/Cy3) First Spot (PBX0145A10 mRNA, stage 8): 0.28 | Ratio of Medians (Cy5/Cy3) Mean (PBX0145A10 mRNA, stage 8): 0.25 ± 0.03 | Ratio of Medians (Cy5/Cy3) Second Spot (PBX0145A10 mRNA, stage 8): 0.22 | (CY3/CY5) by Landmarks (1.6) (PBX0145E05 mRNA, stage 8): 5.43 | (CY3/CY5) by all Data Points (1.3) (PBX0145E05 mRNA, stage 8): 8.69 | Normalization by Landmarks (1.6) (PBX0145E05 mRNA, stage 8): 0.18 | Normalization by all Data Points (1.3) (PBX0145E05 mRNA, stage 8): 0.12 | Ratio of Medians (Cy5/Cy3) First Spot (PBX0145E05 mRNA, stage 8): 0.11 | Ratio of Medians (Cy5/Cy3) Mean (PBX0145E05 mRNA, stage 8): 0.09 ± 0.02 | Ratio of Medians (Cy5/Cy3) Second Spot (PBX0145E05 mRNA, stage 8): 0.07 | (CY3/CY5) by Landmarks (1.6) (PBX0145E09 mRNA, stage 8): 2.76 | (CY3/CY5) by all Data Points (1.3) (PBX0145E09 mRNA, stage 8): 4.42 | Normalization by Landmarks (1.6) (PBX0145E09 mRNA, stage 8): 0.36 | Normalization by all Data Points (1.3) (PBX0145E09 mRNA, stage 8): 0.23 | Ratio of Medians (Cy5/Cy3) First Spot (PBX0145E09 mRNA, stage 8): 0.16 | Ratio of Medians (Cy5/Cy3) Mean (PBX0145E09 mRNA, stage 8): 0.17 ± 0.02 | Ratio of Medians (Cy5/Cy3) Second Spot (PBX0145E09 mRNA, stage 8): 0.19 | (CY3/CY5) by Landmarks (1.6) (PBX0145E10 mRNA, stage 8): 2.85 | (CY3/CY5) by all Data Points (1.3) (PBX0145E10 mRNA, stage 8): 4.57 | Normalization by Landmarks (1.6) (PBX0145E10 mRNA, stage 8): 0.35 | Normalization by all Data Points (1.3) (PBX0145E10 mRNA, stage 8): 0.22 | Ratio of Medians (Cy5/Cy3) First Spot (PBX0145E10 mRNA, stage 8): 0.21 | Ratio of Medians (Cy5/Cy3) Mean (PBX0145E10 mRNA, stage 8): 0.17 ± 0.05 | Ratio of Medians (Cy5/Cy3) Second Spot (PBX0145E10 mRNA, stage 8): 0.12 | Normalized by Landmarks (1.59) (PBX0145H10 mRNA, stage 8): 3.78 | Normalized by all Data Points (1.28) (PBX0145H10 mRNA, stage 8): 3.05 | Ratio of Medians (Cy5/Cy3) First Spot (PBX0145H10 mRNA, stage 8): 2.90 | Ratio of Medians (Cy5/Cy3) Mean (PBX0145H10 mRNA, stage 8): 2.38 ± 0.52 | Ratio of Medians (Cy5/Cy3) Second Spot (PBX0145H10 mRNA, stage 8): 1.86 | expression of gene of EST PBX0144A09 [1]: highly down-regulated | expression of genes of ESTs PBX0134G08, PBX0144C12, PBX0136C09, PBX0134H03, PBX0136F03, PBX0143E06 and PBX0137G06 [1]: highly up-regulated | up-regulation of the 25 highly up-regulated Xenopus genes (cleavage stage, treated vs untreated embryos, Table 1, Panel A): 3-8 fold | % increase of mRNA expression by Microarray analysis (NF by all data point) (gene PBX0135A08): 270%^a % of control | % increase of mRNA expression by Microarray analysis (NF by all data point) (gene PBX013409): 380% of control | RAB-1A expression ratio [2]: 2.10 | RAB-9 expression [2]: down-regulated | RAP-1B expression [2]: down-regulated | Phosphatase 2A regulatory subunit expression (PBX0140D01) (stage 8): 3 fold
